Test results published in patent publication US20030134292A1, “Thermostable DNA polymerases and methods of making same” (priority 2001, published 2003).

How the values were obtained:
Assay type in all cases: biochemical
[1] = target: T1, Taq Δ271 F667Y (polymerase A) (Thermus aquaticus, UniProt P19821, F272M/F667Y); experiment: DNA polymerase activity assay with detergent or additive, Taq Δ271 F667Y purified without detergent
T1 construct: made in house; host or cells: E. coli
Description: (§1) DNA polymerase activity was measured by running reactions of 50 μL containing 25 mM TAPS (tris-hydroxymethyl-methylaminopropane sulfonic acid) buffer, pH 9.3 (measured at 25° C.), 50 mM KCl, 2 mM MgCl2, 1 mM 2-mercaptoethanol, 0.2 mM each of dGTP, dCTP, dTTP, 0.2 mM [α-^33P]-dATP (0.05-0.1 Ci/mmol) and 0.4 mg/mL activated salmon sperm DNA. The reaction mixture (45 μL) was pre-heated to 74° C. and diluted polymerase (5 μL) added with thorough mixing. After 10 minutes of further incubation at 74° C., the reaction was stopped by the addition of 10 μL of 60 mM EDTA and the entire mixture placed at 0° C. Acid-precipitable radioactivity was determined on an aliquot ([…]) by diluting with 1 ml of 2 mM EDTA containing 0.05 mg/ml salmon sperm DNA and adding 1 mL of 20% (w/v) trichloroacetic acid, 2% (w/v) sodium pyrophosphate (Na4P2O7 10H2O) and incubating on ice for at least 15 minutes. Precipitated DNA was collected by filtering through 2.4 cm GFC filter disks (Schleichter and Schuell) and washed 7 times with 5ml of with 1 N HCl, 0.1 M sodium pyrophosphate. The filter was placed in 3 ml of aqueous scintillation counting fluid and ^33P-specific radioactivity determined by scintillation counting.
(§2) For the assays presented in Tables 5 and 6, the polymerase was diluted 10-5000 fold in a buffer containing 25 mM Tris-HCl pH 8.0, 50 mM KCl, 1 mM 2-mercaptoethanol, and the indicated concentration of detergent or other additive. Where possible, only reactions which incorporated 20- 100 pmol of dAMP in 10 minutes were used for calculation of activity.

[2] = target: T2, Tth Δ273 F668Y (polymerase C) (Thermus thermophilus, UniProt P52028, F274M/F669Y); experiment: DNA polymerase activity assay with detergent or additive, Tth Δ273 F668Y purified without detergent
T2 construct: made in house; host or cells: E. coli
T2 sequence (P52028 274-834 F274M/F669Y): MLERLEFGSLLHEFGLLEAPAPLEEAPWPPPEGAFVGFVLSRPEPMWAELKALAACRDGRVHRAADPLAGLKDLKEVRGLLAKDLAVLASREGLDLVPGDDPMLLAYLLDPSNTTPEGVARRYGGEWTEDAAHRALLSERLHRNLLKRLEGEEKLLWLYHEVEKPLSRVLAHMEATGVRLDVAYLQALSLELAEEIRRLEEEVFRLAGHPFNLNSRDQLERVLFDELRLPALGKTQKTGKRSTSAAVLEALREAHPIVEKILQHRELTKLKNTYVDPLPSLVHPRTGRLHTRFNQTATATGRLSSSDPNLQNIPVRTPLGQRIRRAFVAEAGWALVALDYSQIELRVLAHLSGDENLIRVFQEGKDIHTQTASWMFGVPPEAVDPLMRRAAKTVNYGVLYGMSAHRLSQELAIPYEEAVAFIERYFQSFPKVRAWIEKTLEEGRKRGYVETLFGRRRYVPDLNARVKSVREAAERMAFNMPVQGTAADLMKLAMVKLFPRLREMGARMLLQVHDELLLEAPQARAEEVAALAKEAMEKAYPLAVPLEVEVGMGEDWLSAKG
Description: as §1, §2

[3] = target: T3, Taq Δ271 F667Y E681W (polymerase B) (Thermus aquaticus, UniProt P19821, E681W/F272M/F667Y); experiment: DNA polymerase activity assay with detergent or additive, Taq Δ271 F667Y E681W purified without detergent
T3 construct: made in house; host or cells: E. coli
T3 sequence (P19821 272-832 F272M/F667Y/E681W): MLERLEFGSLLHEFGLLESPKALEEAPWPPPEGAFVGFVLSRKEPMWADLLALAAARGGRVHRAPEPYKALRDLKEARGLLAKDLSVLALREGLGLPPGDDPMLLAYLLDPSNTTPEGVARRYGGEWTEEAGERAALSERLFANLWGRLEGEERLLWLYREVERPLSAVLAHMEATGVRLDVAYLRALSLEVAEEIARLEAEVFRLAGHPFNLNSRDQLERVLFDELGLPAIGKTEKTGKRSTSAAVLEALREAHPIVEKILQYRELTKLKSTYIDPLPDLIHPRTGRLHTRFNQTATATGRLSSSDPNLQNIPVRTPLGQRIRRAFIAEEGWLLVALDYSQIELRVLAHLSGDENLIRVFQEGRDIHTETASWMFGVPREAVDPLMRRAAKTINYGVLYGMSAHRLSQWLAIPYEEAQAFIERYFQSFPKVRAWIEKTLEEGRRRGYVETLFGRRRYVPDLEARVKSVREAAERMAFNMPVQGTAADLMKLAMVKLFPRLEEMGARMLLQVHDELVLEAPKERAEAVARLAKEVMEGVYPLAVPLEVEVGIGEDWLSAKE
Description: as §1, §2

[4] = additive final concentration 0.01% (w/v)
[5] = additive final concentration 0.05% (w/v)
[6] = additive final concentration 0.1% (w/v)
[7] = additive final concentration 0.85% (w/v)
[8] = additive final concentration 0.5% (w/v)
[9] = additive final concentration 20 μg/ml
[10] = additive final concentration 100 μg/ml
[11] = additive final concentration 60 μg/ml

T1 sequence (P19821 272-832 F272M/F667Y): as the sequence (P19821 272-832 F272M/F667Y/E681W) above, with W410E counted along it

C[C@H](CCC(=O)[O-])[C@H]1CC[C@H]2[C@@H]3[C@H](O)C[C@@H]4C[C@H](O)CC[C@]4(C)[C@H]3C[C@H](O)[C@]12C.[Na+] [Sodium Cholate]
Taq Δ271 F667Y activity relative to 0.5% each NP-40 and Tween 20 [1, 4]: − − − (Activity < 20%)
Taq Δ271 F667Y activity relative to 0.5% each NP-40 and Tween 20 [1, 5]: − − − (Activity < 20%)
Taq Δ271 F667Y activity relative to 0.5% each NP-40 and Tween 20 [1, 6]: − − − (Activity < 20%)
Tth Δ273 F668Y activity relative to 0.5% each NP-40 and Tween 20 [2, 4]: − − − (Activity < 20%)
Tth Δ273 F668Y activity relative to 0.5% each NP-40 and Tween 20 [2, 5]: − − − (Activity < 20%)
Tth Δ273 F668Y activity relative to 0.5% each NP-40 and Tween 20 [2, 6]: − − − (Activity < 20%)
Taq Δ271 F667Y E681W activity relative to 0.5% each NP-40 and Tween 20 [3, 4]: − − − (Activity < 20%)
Taq Δ271 F667Y E681W activity relative to 0.5% each NP-40 and Tween 20 [3, 5]: − − − (Activity < 20%)
Taq Δ271 F667Y E681W activity relative to 0.5% each NP-40 and Tween 20 [3, 6]: − − − (Activity < 20%)

CC1=NC[C@H](O)[C@@H](C(=O)O)N1 [Hydroxyectoin]
Taq Δ271 F667Y activity relative to 0.5% each NP-40 and Tween 20 [1, 4]: − − − (Activity < 20%)
Taq Δ271 F667Y activity relative to 0.5% each NP-40 and Tween 20 [1, 5]: − − − (Activity < 20%)
Tth Δ273 F668Y activity relative to 0.5% each NP-40 and Tween 20 [2, 4]: − − − (Activity < 20%)
Tth Δ273 F668Y activity relative to 0.5% each NP-40 and Tween 20 [2, 5]: − − − (Activity < 20%)
Taq Δ271 F667Y E681W activity relative to 0.5% each NP-40 and Tween 20 [3, 4]: − − − (Activity < 20%)
Taq Δ271 F667Y E681W activity relative to 0.5% each NP-40 and Tween 20 [3, 5]: − − − (Activity < 20%)

gelatin
Tth Δ273 F668Y activity relative to 0.5% each NP-40 and Tween 20 ([2]; additive final concentration 50 μg/ml): − − − (Activity < 20%)

CCCCCCCC(=O)N(C)C[C@H](O)[C@@H](O)[C@H](O)[C@H](O)CO [Mega-8, Ocatanoyl-N-mehtylglucamide]
Taq Δ271 F667Y activity relative to 0.5% each NP-40 and Tween 20 [1, 6]: + + (Activity 70-80%)
Taq Δ271 F667Y activity relative to 0.5% each NP-40 and Tween 20 [1, 7]: + (Activity 60-70%)
Polymerase A Activity (%) ([1]; detergent 0.5% (w/v)): 76.6%
Tth Δ273 F668Y activity relative to 0.5% each NP-40 and Tween 20 [2, 6]: + + (Activity 70-80%)
Tth Δ273 F668Y activity relative to 0.5% each NP-40 and Tween 20 [2, 8]: + (Activity 60-70%)
Tth Δ273 F668Y activity relative to 0.5% each NP-40 and Tween 20 [2, 7]: + (Activity 60-70%)
Polymerase C Activity (%) ([2]; detergent 0.5% (w/v)): 84.5%
Taq Δ271 F667Y E681W activity relative to 0.5% each NP-40 and Tween 20 ([3]; additive final concentration 0.001% (w/v) in assay reaction mixture): − − − (Activity < 20%)
Taq Δ271 F667Y E681W activity relative to 0.5% each NP-40 and Tween 20 [3, 4]: − − − (Activity < 20%)
Taq Δ271 F667Y E681W activity relative to 0.5% each NP-40 and Tween 20 [3, 6]: − (Activity 50-60%)
Taq Δ271 F667Y E681W activity relative to 0.5% each NP-40 and Tween 20 [3, 8]: + + + (Activity > 80% (relative to activity using 0.5% each NP-40 and Tween 20))
Taq Δ271 F667Y E681W activity relative to 0.5% each NP-40 and Tween 20 [3, 7]: − − (Activity 20-50%)
Polymerase B Activity (%) ([3]; detergent 0.5% (w/v)): 71%

E. coli Single-Stranded DNA Binding Protein: E. coli Single-Stranded DNA Binding Protein
Tth Δ273 F668Y activity relative to 0.5% each NP-40 and Tween 20 [2, 9]: − − − (Activity < 20%)
Tth Δ273 F668Y activity relative to 0.5% each NP-40 and Tween 20 [2, 10]: − − − (Activity < 20%)

CCCCCCCCCCCCCC[N+](C)(C)CCCS(=O)(=O)[O-] [Zwittergent 3-14]
Taq Δ271 F667Y E681W activity relative to 0.5% each NP-40 and Tween 20 [3, 4]: − − − (Activity < 20%)

Bovine Serum Albumin (BSA): Bovine Serum Albumin
Taq Δ271 F667Y activity relative to 0.5% each NP-40 and Tween 20 [1, 11]: − (Activity 50-60%)
Tth Δ273 F668Y activity relative to 0.5% each NP-40 and Tween 20 [2, 11]: − − (Activity 20-50%)

B1: T4 gene 32 Protein: T4 gene 32 Protein (protein, UniProt P03695 1-301, looked up)
Single-stranded DNA-binding …: MFKRKSTAELAAQMAKLNGNKGFSSEDKGEWKLKLDNAGNGQAVIRFLPSKNDEQAPFAILVNHGFKKNGKWYIETCSSTHGDYDSCPVCQYISKNDLYNTDNKEYSLVKRKTSYWANILVVKDPAAPENEGKVFKYRFGKKIWDKINAMIAVDVEMGETPVDVTCPWEGANFVLKVKQVSGFSNYDESKFLNQSAIPNIDDESFQKELFEQMVDLSEMTSKDKFKSFEELNTKFGQVMGTAVMGGAAATAAKKADKVADDLDAFNVDDFNTKTEDDFMSSSSGSSSSADDTDLDDLLNDL
Tth Δ273 F668Y activity relative to 0.5% each NP-40 and Tween 20 [2, 9]: − − − (Activity < 20%)
Tth Δ273 F668Y activity relative to 0.5% each NP-40 and Tween 20 [2, 10]: − − − (Activity < 20%)
